The values below come from patent US12102648B2, “Orally-bioavailable nucleoside analogs” (priority 2021, dated 2024).

This data set in a line: in vitro. It counts as in vitro ADME. Particulars: human. In short, it runs like this: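 Permeability measured in both directions across 19-day Caco-2 layers with TEER above 600 […], incubated at 37° C without shaking; donor and receiver sampled at 10 and 90 min for LC/MS/MS. Derived values: Papp (cm/s), efflux ratio, recovery.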
Where [1] appears, read: Caco-2 monolayer, apical to basolateral, 90-minute incubation, read-out: Papp, A-B.
Where [2] appears, read: Caco-2 monolayer, basolateral to apical, 90-minute incubation, read-out: Papp, B-A.
Where [3] appears, read: Caco-2 monolayer, ER>2 indicates potential efflux transporter substrate, read-out: ER (efflux ratio).

Where two headings read alike, the source gives them in different places.

In general, Papp A→B refers to how fast a substance crosses the layer from the apical side. What is called Papp B→A is the apparent permeability from the basolateral to the apical side of a cell layer. As to `CNc1nc(NC(=O)CC2CCCCC2)nc2c1ncn2[C@@H]1O[C@H](COC(=O)CC2CCCCC2)[C@@H](O)[C@@]1(C)F` [Compound 292, ((2R,3R,4R,5R)-5-(2-(2-cyclohexylacetamido)-6-(methylamino)-9H-purin-9-yl)-4-fluoro-3-hydroxy-4-methyltetrahydrofuran-2-yl)methyl 2-cyclohexylacetate], under “Caco-2”, the Papp A→B at 90 min amounted to 2 ×10⁻⁶ cm/s, the Papp B→A at 90 min came to 1 ×10⁻⁶ cm/s and the efflux ratio at 90 min came to 0.5.

For the molecule `CNc1nc(N)nc2c1ncn2[C@@H]1O[C@H](COC(=O)CC(C)C)[C@@H](OC(=O)CC(C)C)[C@@]1(C)F` [Compound 312, (2R,3R,4R,5R)-5-(2-amino-6-(methylamino)-9H-purin-9-yl)-4-fluoro-4-methyl-2-(((3-methylbutanoyl)oxy)methyl)tetrahydrofuran-3-yl 3-methylbutanoate], for the setting “Caco-2”, the apparent permeability from apical to basolateral (Papp A→B) at 90 min worked out at 23 ×10⁻⁶ cm/s, the Papp B→A at 90 min was 6.5 ×10⁻⁶ cm/s and the efflux ratio at 90 min is 0.28.

As for `CCC(=O)O[C@@H]1[C@@H](COC(C)=O)O[C@@H](n2cnc3c(NC)nc(N)nc32)[C@]1(C)F` [Compound 329, (2R,3R,4R,5R)-2-(acetoxymethyl)-5-(2-amino-6-(methylamino)-9H-purin-9-yl)-4-fluoro-4-methyltetrahydrofuran-3-yl propionate], where the note is “Caco-2”, the Papp A→B at 90 min amounted to 16 ×10⁻⁶ cm/s, the Papp B→A at 90 min stood at 18 ×10⁻⁶ cm/s and the efflux ratio at 90 min is 1.1.

On to `CCC(=O)Nc1nc(NC)c2ncn([C@@H]3O[C@H](COC(C)=O)[C@@H](O)[C@@]3(C)F)c2n1` [Compound 330, ((2R,3R,4R,5R)-4-fluoro-3-hydroxy-4-methyl-5-(6-(methylamino)-2-propionamido-9H-purin-9-yl)tetrahydrofuran-2-yl)methyl acetate], for which, for the setting “Caco-2”, the Papp A→B at 90 min amounted to 0.54 ×10⁻⁶ cm/s, the Papp B→A at 90 min turned out to be 7 ×10⁻⁶ cm/s and the efflux ratio at 90 min turned out to be 13.

Turning to `CCC(=O)Nc1nc(NC)c2ncn([C@@H]3O[C@H](COC(C)=O)[C@@H](OC(=O)CC)[C@@]3(C)F)c2n1` [Compound 331, (2R,3R,4R,5R)-2-(acetoxymethyl)-4-fluoro-4-methyl-5-(6-(methylamino)-2-propionamido-9H-purin-9-yl)tetrahydrofuran-3-yl propionate], for the setting “Caco-2”, the Papp A→B at 90 min came to 7.9 ×10⁻⁶ cm/s, the Papp B→A at 90 min turned out to be 16 ×10⁻⁶ cm/s and the efflux ratio at 90 min came to 2.1.

With `CNc1nc(NC(=O)CC(C)C)nc2c1ncn2[C@@H]1O[C@H](COC(C)=O)[C@@H](OC(=O)CC(C)C)[C@@]1(C)F` [Compound 332, (2R,3R,4R,5R)-2-(acetoxymethyl)-4-fluoro-4-methyl-5-(6-(methylamino)-2-(3-methylbutanamido)-9H-purin-9-yl)tetrahydrofuran-3-yl 3-methylbutanoate], under “Caco-2”, the Papp A→B at 90 min was 11 ×10⁻⁶ cm/s, the Papp B→A at 90 min worked out at 2.6 ×10⁻⁶ cm/s and the efflux ratio at 90 min was 0.22.

For the molecule `CNc1nc(NC(=O)Cc2ccccc2)nc2c1ncn2[C@@H]1O[C@H](COC(C)=O)[C@@H](O)[C@@]1(C)F` [Compound 334, ((2R,3R,4R,5R)-4-fluoro-3-hydroxy-4-methyl-5-(6-(methylamino)-2-(2-phenylacetamido)-9H-purin-9-yl)tetrahydrofuran-2-yl)methyl acetate], the Papp A→B at 90 min under setting [1] came out at 0.76 ×10⁻⁶ cm/s. Moreover, the Papp B→A at 90 min under setting [2] came to 19 ×10⁻⁶ cm/s. In addition, the efflux ratio at 90 min under setting [3] is 25.

As for `CCCCC(=O)Nc1ncnn2c([C@]3(C#N)O[C@H](CO)[C@@H](OC(=O)Cc4ccccc4)[C@H]3O)ccc12` [Compound 340, (2R,3S,4R,5R)-5-cyano-4-hydroxy-2-(hydroxymethyl)-5-(4-pentanamidopyrrolo[2,1-f][1,2,4]triazin-7-yl)tetrahydrofuran-3-yl 2-phenylacetate], under setting [1], the Papp A→B at 90 min worked out at 0.64 ×10⁻⁶ cm/s. In addition, under setting [2], the Papp B→A at 90 min stood at 0.23 ×10⁻⁶ cm/s. The efflux ratio at 90 min under setting [3] turned out to be 0.35.

For `CCCCC(=O)Nc1ncnn2c([C@]3(C#N)O[C@H](COC(=O)[C@@H](N)C(C)C)[C@@H](O)[C@H]3O)ccc12` [Compound 341, ((2R,3S,4R,5R)-5-cyano-3,4-dihydroxy-5-(4-pentanamidopyrrolo[2,1-f][1,2,4]triazin-7-yl)tetrahydrofuran-2-yl)methyl L-valinate], under “Caco-2”, the Papp A→B at 90 min turned out to be 0.13 ×10⁻⁶ cm/s, the Papp B→A at 90 min was 2.3 ×10⁻⁶ cm/s and the efflux ratio at 90 min worked out at 18.

Regarding `N#C[C@@]1(c2ccc3c(NC(=O)c4ccccc4)ncnn23)O[C@H](CO)[C@@H](OC(=O)CC2CCCCC2)[C@H]1O` [Compound 342, (2R,3S,4R,5R)-5-(4-benzamidopyrrolo[2,1-f][1,2,4]triazin-7-yl)-5-cyano-4-hydroxy-2-(hydroxymethyl)tetrahydrofuran-3-yl 2-cyclohexylacetate], where the note is “Caco-2”, the apical-to-basolateral permeability (Papp A→B) at 90 min came to 1.1 ×10⁻⁶ cm/s, the apparent permeability from basolateral to apical (Papp B→A) at 90 min amounted to 0.39 ×10⁻⁶ cm/s and the efflux ratio at 90 min was 0.34.

As for `CC(=O)O[C@@H]1[C@H](OC(=O)[C@@H](N)C(C)C)[C@@H](COC(=O)Cc2ccccc2)O[C@@]1(C#N)c1ccc2c(N)ncnn12` [Compound 343, (2R,3R,4R,5R)-4-acetoxy-5-(4-aminopyrrolo[2,1-f][1,2,4]triazin-7-yl)-5-cyano-2-((2-phenylacetoxy)methyl)tetrahydrofuran-3-yl L-valinate], the Papp A→B at 90 min under setting [1] was 1.2 ×10⁻⁶ cm/s. Under setting [2], the Papp B→A at 90 min is 6.5 ×10⁻⁶ cm/s. Also, the efflux ratio at 90 min under setting [3] turned out to be 5.6.

As for `CC(=O)Nc1ncnn2c([C@]3(C#N)O[C@H](COC(=O)Cc4ccccc4)[C@@H](OC(=O)[C@@H](N)C(C)C)[C@H]3O)ccc12` [Compound 344, (2R,3S,4R,5R)-5-(4-acetamidopyrrolo[2,1-f][1,2,4]triazin-7-yl)-5-cyano-4-hydroxy-2-((2-phenylacetoxy)methyl)tetrahydrofuran-3-yl L-valinate], the Papp A→B at 90 min under setting [1] is 0.8 ×10⁻⁶ cm/s. Besides, under setting [2], the Papp B→A at 90 min is 9.7 ×10⁻⁶ cm/s. Besides, the efflux ratio at 90 min under setting [3] came to 12.

Consider `N#C[C@@]1(c2ccc3c(NC(=O)[C@@H](N)Cc4ccc(F)cc4)ncnn23)O[C@H](CO)[C@@H](OC(=O)CC2(N)CCCCC2)[C@H]1O` [Compound 345, (2R,3S,4R,5R)-5-(4-((S)-2-amino-3-(4-fluorophenyl)propanamido)pyrrolo[2,1-f][1,2,4]triazin-7-yl)-5-cyano-4-hydroxy-2-(hydroxymethyl)tetrahydrofuran-3-yl 2-(1-aminocyclohexyl)acetate], for which, under “Caco-2”, the Papp A→B at 90 min amounted to 0.09 ×10⁻⁶ cm/s, the Papp B→A at 90 min amounted to 3.9 ×10⁻⁶ cm/s and the efflux ratio at 90 min came to 43.

Take `CCCC(=O)Nc1ncnn2c([C@]3(C#N)O[C@H](COC(=O)Cc4ccccc4)[C@@H](OC(=O)[C@@H](N)C(C)C)[C@H]3O)ccc12` [Compound 346, (2R,3S,4R,5R)-5-(4-butyramidopyrrolo[2,1-f][1,2,4]triazin-7-yl)-5-cyano-4-hydroxy-2-((2-phenylacetoxy)methyl)tetrahydrofuran-3-yl L-valinate]: the Papp A→B at 90 min under setting [1] came out at 1.6 ×10⁻⁶ cm/s. For the same molecule, the Papp B→A at 90 min under setting [2] amounted to 9 ×10⁻⁶ cm/s. In addition, the efflux ratio at 90 min under setting [3] came to 5.7.

In the case of `CC(C)C(=O)Nc1ncnn2c([C@]3(C#N)O[C@H](COC(=O)Cc4ccccc4)[C@@H](OC(=O)[C@@H](N)C(C)C)[C@H]3O)ccc12` [Compound 347, (2R,3S,4R,5R)-5-cyano-4-hydroxy-5-(4-isobutyramidopyrrolo[2,1-f][1,2,4]triazin-7-yl)-2-((2-phenylacetoxy)methyl)tetrahydrofuran-3-yl L-valinate], under setting [1], the Papp A→B at 90 min was found to be 7 ×10⁻⁶ cm/s. The Papp B→A at 90 min under setting [2] is 17 ×10⁻⁶ cm/s. In addition, the efflux ratio at 90 min under setting [3] is 2.4.
